IC50 data for 21 molecules are collected here from patent US10081629B2, “Amide derivatives and pharmaceutically acceptable salts thereof, preparation method thereof and medicinal application thereof” (Shanghai Hengrui Pharmaceutical Co., Ltd., priority 2014, dated 2018).

One may read the IC50 as the concentration that inhibits the measured activity by half. Low readings indicate inhibition by little substance, high ones a need for much substance.

The target in one test is human mPGES1 (Homo sapiens (Human), UniProt O14684). The test can be described thus: Inhibition activity for human mPGES1 (enzyme assay, PGE2 HTRF). Type of test: biochemical. Conditions: membrane protein from HEK-293 F transfected with human mPGES1. How it is done: The method described here is used for determining the inhibition activity of the present compounds for human mPGES1.
• 1. PGE2 Assay kit (Cisbio, #62P2APEB) • 2. Prostaglandin H2 (Sigma, #P7867-1MG) • 3. FlexStation3 microplate reader. II. Experimental Procedure • 1. Obtaining the membrane proteins of mPGES1 enzyme
The cell density of HEK-293 F was grown to 6×10^5 per milliliter and was transferred with the plasmid containing human mPGES1 gene by transfection reagent PEI the next day. The cells were continuously cultured for 72 hours at 37° C. with shaking. After centrifuging at 1100 g for 5 minutes, the cells were harvested. After ultrasonication in an ice bath and centrifugation at 5000 g for 10 minutes, the supernatant was obtained. The supernatant was centrifuged at 100000 g for 1 hour to obtain a precipitate. The precipitate was resuspended with storage buffer containing 10% glycerinum, subpackaged and frozen rapidly under liquid nitrogen, and stored at −80° C. • 2. mPGES1 enzyme assay
mPGES1 was diluted with assay buffer and added into plate at 49 μL/well supplemented with 1 μL of compound (the final concentration of each compound at seven gradient concentrations was 10000 nM, 1000 nM, 100 nM, 10 nM, 1 nM, 0.1 nM and 0.01 nM). […] Then, each well was added with 53.8 μL of 6 mg/mL SnCl2 to quench the reaction. The sample was diluted with dilute buffer at 1:400. 10 μl of diluted sample, 5 μL PGE2-d2 and 5 μL anti-PGE2 Cryptate were added to a black 384-well plate, and incubated at 4° C. overnight. HTRF was determined using Flexstation, and the IC50 of the compounds was obtained by data processing software.
The inhibition activity of the present compounds on mPGES1 was tested by the assay described above.
(In general: In TR-FRET formats the signal depends on donor and acceptor labels being close together.)

Test [1] deals with secretion of PGE2 by A549 cells stimulated with IL-1β. The test is described as follows: Inhibition of the secretion of PGE2 by A549 cells stimulated with IL-1β. Conditions: IL-1β 0.2 ng/mL, 24 hours. Type of test: cell-based. The text has this:
The method described here was used for determining the inhibition activity of the present compounds on the secretion of PGE2 by A549 cells stimulated with IL-1β.
• 1. PGE2 Assay kit (Cisbio, #62P2APEB) • 2. IL-1β (Peprotech, # AF-200-01B) • 3. Cell line: A549 (ATCC: CCL-185) • 4. FlexStation3 microplate reader. II. Experimental Procedure
On the first day, A549 cells were inoculated in a 96-well plate at 40000/well. On the second day, the culture medium in the 96-well plate was removed and then added with 90 μL of compound diluted with culture medium (the concentration of each compound at seven gradient concentrations was 11111 nM, […], 1.11 nM, 0.11 nM and 0.011 nM). The cells were incubated for 30 minutes at 37° C. in an incubator, and then added with IL-1β to a final concentration of 0.2 ng/mL. Then, the cells were incubated for another 24 hours at 37° C. On the third day, 10 μl of supernatant, 5 μL of PGE2-d2 and 5 μL of anti-PGE2 Cryptate were added into a black 384-well plate, and then incubated at 4° C. overnight. HTRF was determined using Flexstation, and the IC50 of the compounds was obtained by data processing software.
The inhibition activity of the present compounds on the secretion of PGE2 by A549 cells stimulated with IL-1β was determined by the assay described above.

Sequence of human mPGES1 (O14684 whole entry): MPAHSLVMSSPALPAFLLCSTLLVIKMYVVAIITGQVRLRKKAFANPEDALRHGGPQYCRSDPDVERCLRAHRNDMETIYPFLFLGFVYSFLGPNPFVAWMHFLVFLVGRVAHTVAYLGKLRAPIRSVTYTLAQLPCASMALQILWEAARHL

As for `CCn1c(-c2ccc(C(F)(F)F)cc2)cc2cc(NC(=O)c3cc(CNC(=O)C(C)C)cnc3C(F)F)ccc21` [Example 1, 2-(difluoromethyl)-N-(1-ethyl-2-(4-(trifluoromethyl)phenyl)-1H-indol-5-yl)-5-((2-methylpropanoylamino)methyl)nicotinamide], the IC50 against human mPGES1 was 8.26 nM; in test [1] (Homo sapiens, A549) it was 3.55 nM.
With `CCn1c(-c2ccc(F)cc2)cc2cc(NC(=O)c3cc(CNC(=O)C(C)(C)C)ccc3Cl)cnc21` [Example 4, 2-Chloro-N-(1-ethyl-2-(4-fluorophenyl)-1H-pyrrolo[2,3-b]pyridin-5-yl)-5-((2,2-dimethylpropanoylamino)methyl)-benzamide], the IC50 in test [1] (Homo sapiens, A549) came out at 26.9 nM.
`CCn1c(-c2ccc(F)cc2)cc2cc(NC(=O)c3cc(CNC(=O)C(C)C)cnc3C(F)F)ccc21` [Example 5, 2-(Difluoromethyl)-N-(1-ethyl-2-(4-fluorophenyl)-1H-indol-5-yl)-5-((2-methylpropanoylamino)methyl)nicotinamide]: the half-maximal inhibitory concentration (IC50) came out at 22 nM against human mPGES1 and 12.4 nM in test [1] (Homo sapiens, A549).
As to `CCn1cc(-c2ccc(F)cc2)c2cc(NC(=O)c3cc(CNC(=O)C(C)(C)C)ccc3Br)ccc21` [Example 6, 2-Bromo-N-(1-ethyl-3-(4-fluorophenyl)-1H-indol-5-yl)-5-((2,2-dimethylpropanoylamino)methyl)-benzamide], in test [1] (Homo sapiens, A549), the IC50 is 68.1 nM.
`CCn1c(-c2ccc(F)cc2)cc2cc(NC(=O)c3cc(CNC(=O)C(C)(C)C)ccc3Br)ccc21` [Example 7, 2-Bromo-N-(1-ethyl-2-(4-fluorophenyl)-1H-indol-5-yl)5-((2,2-dimethylpropanoylamino)methyl)-benzamide]: the IC50 in test [1] (Homo sapiens, A549) came out at 10.4 nM.
`CC(C)C(=O)NCc1cnc(C(F)F)c(C(=O)Nc2ccc3c(c2)cc(-c2ccc(C(F)(F)F)cc2)n3C)c1` [Example 9, 2-(difluoromethyl)-N-(1-methyl-2-(4-(trifluoromethyl)phenyl)-1H-indol-5-yl)5-((2-methylpropanoylamino)methyl)-nicotinamide]: the IC50 against human mPGES1 worked out at 15.6 nM; in test [1] (Homo sapiens, A549) it was 11.8 nM.
The corresponding values for `CCn1c(-c2ccc(Cl)cc2)cc2cc(NC(=O)c3cc(CNC(=O)C(C)C)cnc3C(F)F)ccc21` [Example 10, 2-(Difluoromethyl)-N-(1-ethyl-2-(4-chlorophenyl)-1H-indol-5-yl)-5-((2-methylpropanoylamino)methyl)nicotinamide] are 11.2 nM and 12.3 nM.
For the molecule `CC(C)C(=O)NCc1cnc(C(F)F)c(C(=O)Nc2ccc3c(c2)cc(-c2ccc(Cl)cc2)n3C)c1` [Example 13, N-(2-(4-chlorophenyl)-1-methyl-1H-indol-5-yl)-2-(difluoromethyl)-5-((2-methylpropanoylamino)methyl)nicotinamide], the IC50 on human mPGES1 stood at 7.43 nM; in test [1] (Homo sapiens, A549) it was 16.7 nM.
With `Cn1c(-c2ccc(C(F)(F)F)cc2)cc2cc(NC(=O)c3cc(CNC(=O)C(C)(C)F)cnc3C(F)F)ccc21` [Example 15, 2-(Difluoromethyl)-5-(((2-fluoro-2-methyl-propanoyl)amino)methyl)-N-(1-methyl-2-(4-(trifluoromethyl)phenyl)-1H-indol-5-yl)nicotinamide], the IC50 is 23.4 nM at human mPGES1 and 33.3 nM in test [1] (Homo sapiens, A549).
Consider `CC(C)(C)C(=O)NCc1ccc(Cl)c(C(=O)Nc2ccc3nn(-c4ccc(Cl)cc4)cc3c2)c1` [Example 16, 2-Chloro-N-(2-(4-chlorophenyl)-2H-indazol-5-yl)-5-((2,2-dimethylpropanoylamino)methyl)benzamide], for which the IC50 was 9.31 nM at human mPGES1 and 26.2 nM in test [1] (Homo sapiens, A549).
For the molecule `Cn1c(-c2ccc(Cl)cc2)cc2cc(NC(=O)c3cc(CNC(=O)C(C)(C)F)cnc3C(F)F)ccc21` [Example 18, N-(2-(4-Chlorophenyl)-1-methyl-1H-indol-5-yl)-2-(difluoromethyl)-5-(((2-fluoro-2-methyl-propanoyl)amino)methyl)nicotinamide], the IC50 at human mPGES1 is 5.15 nM; in test [1], 17.2 nM.
Turning to `CCn1c(-c2ccccc2Cl)cc2cc(NC(=O)c3cc(CNC(=O)C(C)(C)F)cnc3C(F)F)ccc21` [Example 19, N-(2-(2-Chlorophenyl)-1-ethyl-1H-indol-5-yl)-2-(difluoromethyl)-5-(((2-fluoro-2-methyl-propanoyl)amino)methyl)nicotinamide], the IC50 on human mPGES1 turned out to be 8.12 nM; in test [1] (Homo sapiens, A549), 42.6 nM.
The corresponding values for `Cn1c(-c2ccc(Cl)cc2)cc2cc(NC(=O)c3cc(CNC(=O)C4(C(F)(F)F)CC4)cnc3C(F)F)ccc21` [Example 21, N-(2-(4-Chlorophenyl)-1-methyl-1H-indol-5-yl)-2-(difluoromethyl)-5-(((1-(trifluoromethyl)cyclopropanecarbonyl)amino)methyl)nicotinamide] are 8.24 nM and 57.4 nM.
For the molecule `CC(C)(C)C(=O)NCc1ccc(Cl)c(C(=O)Nc2ccc3oc(-c4ccc(C(F)(F)F)cc4)nc3c2)c1` [Example 22, 2-Chloro-5-((2,2-dimethylpropanoylamino)methyl)-N-(2-(4-(trifluoromethyl)phenyl)benzo[d]oxazol-5-yl)benzamide], the IC50 on human mPGES1 was found to be 6.69 nM; in test [1] (Homo sapiens, A549), 38.8 nM.
The corresponding values for `CC(C)(F)C(=O)NCc1cnc(C(F)F)c(C(=O)Nc2ccc3oc(-c4ccc(C(F)(F)F)cc4)nc3c2)c1` [Example 23, 2-(Difluoromethyl)-5-(((2-fluoro-2-methyl-propanoyl)amino)methyl)-N-(2-(4-(trifluoromethyl)phenyl)benzo[d]oxazol-5-yl)nicotinamide] are 4.73 nM and 49 nM.
Take `CC(C)C(=O)NCc1cnc(C(F)F)c(C(=O)Nc2ccc3nn(-c4ccc(C(F)(F)F)cc4)cc3c2)c1` [Example 24, 2-(Difluoromethyl)-5-((2-methylpropanoylamino)methyl)-N-(2-(4-(trifluoromethyl)phenyl)-2H-indazol-5-yl)nicotinamide]: the IC50 was found to be 17.2 nM at human mPGES1 and 45.6 nM in test [1] (Homo sapiens, A549).
For `CC(C)(C)C(=O)NCc1ccc(Cl)c(C(=O)Nc2ccc3c(c2)CN(c2ccc(C(F)(F)F)cc2)C3)c1` [Example 25, 2-Chloro-5-((2,2-dimethylpropanoylamino)methyl)-N-(2-(4-(trifluoromethyl)phenyl)isoindolin-5-yl)benzamide] the same measures were 11.9 nM and 47.6 nM.
Molecule `CC1(C(=O)NCc2ccc(Cl)c(C(=O)Nc3ccc4oc(-c5ccc(C(F)(F)F)cc5)nc4c3)c2)CC1` [Example 41, 2-Chloro-5-(((1-methylcyclopropanecarbonyl)amino)methyl)-N-(2-(4-(trifluoromethyl)phenyl)benzo[d]oxazol-5-yl)benzamide] yielded an IC50 against human mPGES1 of 25.6 nM.
As for `CCn1c(-c2ccc(Cl)cc2)cc2cc(NC(=O)c3cc(CNC(=O)C4(C)CC4)cnc3C(F)F)ccc21` [Example 42, N-(2-(4-Chlorophenyl)-1-ethyl-1H-indol-5-yl)-2-(difluoromethyl)-5-(((1-methylcyclopropanecarbonyl)amino)methyl)nicotinamide], the IC50 against human mPGES1 was 7.21 nM.
`CCn1c(-c2ccc(Cl)cc2)nc2cc(NC(=O)c3cc(CNC(=O)C(C)(C)C)ccc3Cl)ccc21` [Example 52, 2-Chloro-N-(2-(4-chlorophenyl)-1-ethyl-1H-benzo[d]imidazol-5-yl)-5-((2,2-dimethylpropanoylamino)methyl)benzamide] came in with an IC50 in test [1] (Homo sapiens, A549) of 55.2 nM.
At human mPGES1, `Cn1c(-c2ccc(Cl)cc2)nc2cc(NC(=O)c3cc(CNC(=O)C(C)(C)C)ccc3Cl)ccc21` [Example 55, 2-Chloro-N-(2-(4-chlorophenyl)-1-methyl-1H-benzo[d]imidazol-5-yl)-5-((2,2-dimethylpropanoylamino)methyl)benzamide] came in with an IC50 of 29.8 nM.
